Experimental data as given in ChEMBL document CHEMBL2440051, “Structure-activity relationships of lanostane-type triterpenoids from Ganoderma lingzhi as α-glucosidase inhibitors” (Bioorg Med Chem Lett, 2013).

Organism: Homo sapiens
Test: Ratio of acarbose IC50 to compound IC50 for alpha-glucosidase (unknown origin)
Compound `CC(CC(=O)C[C@@H](C)[C@H]1CC(=O)[C@@]2(C)C3=C([C@@H](O)C[C@]12C)[C@@]1(C)CCC(=O)C(C)(C)[C@@H]1C[C@@H]3O)C(=O)O` (stereo partly drawn) [GANODERIC ACID DF] has a Ratio IC50 of 2.5. For `C[C@H](CCC=C(CO)CO)[C@H]1CC[C@@]2(C)C3=CC[C@H]4C(C)(C)C(=O)CC[C@]4(C)C3=CC[C@]12C` [GANODERIOL F], the Ratio IC50 was 3. With `C/C(=C\CC[C@@H](C)[C@H]1CC[C@@]2(C)C3=CC[C@H]4C(C)(C)[C@@H](O)CC[C@]4(C)C3=CC[C@]12C)CO` [GANODEROL B] the Ratio IC50 was 5.

Biological target: not listed separately
Test: Inhibition of alpha-glucosidase (unknown origin) using sucrose as substrate assessed as formation of glucose after 30 mins by glucose oxidase method
Set-up: species or system Homo sapiens
With `COC(=O)C(C)CC(=O)C[C@@H](C)[C@H]1CC(=O)[C@@]2(C)C3=C([C@@H](O)C[C@]12C)[C@@]1(C)CCC(=O)C(C)(C)[C@@H]1C[C@@H]3O` (stereo partly drawn) the IC50 was greater than 600 µM. `C[C@H]1O[C@H](O[C@H]2[C@H](O)[C@@H](O)[C@@H](O[C@H]3[C@H](O)[C@@H](O)C(O)O[C@@H]3CO)O[C@@H]2CO)[C@H](O)[C@@H](O)[C@@H]1N[C@H]1C=C(CO)[C@@H](O)[C@H](O)[C@H]1O` (stereo partly drawn) [ACARBOSE] showed an IC50 of 522 µM. With `C/C(=C\C(=O)CC(C)C(=O)O)[C@H]1C[C@H](O)[C@@]2(C)C3=C(C(=O)C[C@]12C)[C@@]1(C)CCC(=O)C(C)(C)[C@@H]1C[C@@H]3O` (stereo partly drawn) [GANODERENIC ACID A] the IC50 was 445 µM. `C[C@H](CC(=O)C[C@@H](C)[C@H]1C[C@H](O)[C@@]2(C)C3=C(C(=O)C[C@]12C)[C@@]1(C)CCC(=O)C(C)(C)[C@@H]1C[C@@H]3O)C(=O)O` [GANODERIC ACID A] gave an IC50 of 528 µM. `CC(CC(=O)C[C@@H](C)[C@H]1CC(=O)[C@@]2(C)C3=C(C(=O)C[C@]12C)[C@@]1(C)CC[C@H](O)C(C)(C)[C@@H]1C[C@@H]3O)C(=O)O` (stereo partly drawn) [GANODERIC ACID B] gave an IC50 of 464 µM. With `C[C@H](CC(=O)C[C@@H](C)[C@H]1CC(=O)[C@@]2(C)C3=C(C(=O)C[C@]12C)[C@@]1(C)CCC(=O)C(C)(C)[C@@H]1C[C@@H]3O)C(=O)O` [GANODERIC ACID C1] the IC50 was greater than 600 µM. `C[C@H](CC(=O)C[C@@H](C)[C@H]1C[C@H](O)[C@@]2(C)C3=C(C(=O)C[C@]12C)[C@@]1(C)CC[C@H](O)C(C)(C)[C@@H]1C[C@@H]3O)C(=O)O` [GANODERIC ACID C2] gave an IC50 greater than 600 µM. `CC(CC(=O)C[C@@H](C)[C@H]1CC(=O)[C@@]2(C)C3=C(C(=O)[C@@H](O)[C@]12C)[C@@]1(C)CC[C@H](O)C(C)(C)[C@@H]1CC3=O)C(=O)O` (stereo partly drawn) [GANODERIC ACID C6] showed an IC50 greater than 600 µM. Compound `CC(CC(=O)C[C@@H](C)[C@H]1CC(=O)[C@@]2(C)C3=C([C@@H](O)C[C@]12C)[C@@]1(C)CCC(=O)C(C)(C)[C@@H]1C[C@@H]3O)C(=O)O` (stereo partly drawn) [GANODERIC ACID DF] has an IC50 of 219 µM. `CC(CC(=O)C[C@@H](C)[C@H]1CC(=O)[C@@]2(C)C3=C(C(=O)C[C@]12C)[C@@]1(C)CCC(=O)C(C)(C)[C@@H]1C[C@@H]3O)C(=O)O` (stereo partly drawn) [GANODERIC ACID D] gave an IC50 greater than 600 µM. Work on `CC(CC(=O)C[C@@H](C)[C@H]1CC(=O)[C@@]2(C)C3=C(C(=O)[C@@H](O)[C@]12C)[C@@]1(C)CC[C@H](O)C(C)(C)[C@@H]1C[C@@H]3O)C(=O)O` (stereo partly drawn) [GANODERIC ACID G] yielded an IC50 greater than 600 µM. Compound `CC(=O)O[C@@H]1C(=O)C2=C(C(=O)C[C@H]3C(C)(C)[C@@H](O)CC[C@]23C)[C@]2(C)C(=O)C[C@H]([C@H](C)CC(=O)CC(C)C(=O)O)[C@@]12C` (stereo partly drawn) [GANODERIC ACID H] has an IC50 greater than 600 µM. Work on `CC(CC(=O)C[C@@H](C)[C@H]1C[C@H](O)[C@@]2(C)C3=C(C(=O)C[C@]12C)[C@@]1(C)CCC(=O)C(C)(C)[C@@H]1CC3=O)C(=O)O` (stereo partly drawn) [GANODERIC ACID J] yielded an IC50 greater than 600 µM. `CC(=O)O[C@@H]1C(=O)C2=C([C@@H](O)C[C@H]3C(C)(C)[C@@H](O)CC[C@]23C)[C@]2(C)C(=O)C[C@H]([C@H](C)CC(=O)CC(C)C(=O)O)[C@@]12C` (stereo partly drawn) [GANODERIC ACID K] gave an IC50 greater than 600 µM. Compound `C[C@H](CCC=C(CO)CO)[C@H]1CC[C@@]2(C)C3=CC[C@H]4C(C)(C)C(=O)CC[C@]4(C)C3=CC[C@]12C` [GANODERIOL F] has an IC50 of 208 µM. For `C[C@H](CC[C@H](O)[C@](C)(O)CO)[C@H]1CC[C@@]2(C)C3=CC[C@H]4C(C)(C)C(=O)CC[C@]4(C)C3=CC[C@]12C` [GANODERMANONTRIOL], the IC50 was 540 µM. In the case of `C/C(=C\CC[C@@H](C)[C@H]1CC[C@@]2(C)C3=CC[C@H]4C(C)(C)[C@@H](O)CC[C@]4(C)C3=CC[C@]12C)CO` [GANODEROL B], the IC50 is reported as 110 µM. `CC(CC(=O)C[C@@H](C)[C@H]1C[C@H](O)[C@@]2(C)C3=C(C(=O)C[C@]12C)[C@@]1(C)CC[C@H](O)C(C)(C)[C@@H]1CC3)C(=O)O` (stereo partly drawn) [GANOLUCIDIC ACID B] showed an IC50 greater than 600 µM. For `COC(=O)C(C)CC(=O)C[C@@H](C)[C@H]1C[C@H](O)[C@@]2(C)C3=C(C(=O)C[C@]12C)[C@@]1(C)CCC(=O)C(C)(C)[C@@H]1C[C@@H]3O` (stereo partly drawn) [METHYL GANODERATE A], the IC50 was greater than 600 µM. `COC(=O)C(C)CC(=O)/C=C(\C)[C@H]1C[C@H](O)[C@@]2(C)C3=C(C(=O)C[C@]12C)[C@@]1(C)CCC(=O)C(C)(C)[C@@H]1C[C@@H]3O` (stereo partly drawn) [METHYL GANODERENATE A] showed an IC50 greater than 600 µM.
